Assay results as given in US8492374B2, “Azaazulene compounds” (Industrial Technology Research Institute, priority 2009, dated 2013).

Assays:
[1] = tested on: MV4-11 (FLT3-ITD) cell line; test: In vitro cell activity assay (MTT cell viability, 72 hours); assay type: cell-based; settings: Homo sapiens, 72 hours at 37° C., 10,000 cells per well, read-out: IC50 against MV4-11
Description: Human MV4-11 (FLT3-ITD) cell line was obtained from American Tissue Culture Collection (ATCC number: CRL-9591). The cell line was cultured with RPMI 1640 containing 10% fetal bovine serum, 1 mmol/L sodium pyruvate and 10 mmol/L HEPES (pH 7.4). The cell was grown and maintained in a humidified atmosphere at 37° C. and 5% carbon dioxide.
MV4-11 cell was plated in 96-well microtiter plates (10,000 cells per well) and serial dilutions of indicated compounds were added. At the end of the incubation period (72 hours at 37° C.), cell viability was determined by a tetrazolium dye, MTT (3-(4,5-dimethylthiazol-2-yl)-2,5-diphenyl tetrazolium bromide) (Promega, Madison, Wis.). The formazan crystals were dissolved by DMSO, and the absorbance at a wavelength of 600 nm was recorded using an ELISA plate reader. IC50 values were calculated using nonlinear regression and defined as the concentration needed for a 50% reduction in absorbance of treated versus untreated control cells.

[2] = target: T1, FLT-3 kinase (Homo sapiens, UniProt P36888); test: FLT-3 kinase DELFIA assay (HTScan FLT-3 Kinase Assay Kit); assay type: biochemical; settings: 20 uM ATP; for inhibition at 0.1 µM: 0.1 uM compound; for inhibition at 1 µM: 1 uM compound
T1 construct: human FLT-3 (Arg571-Ser993); GST (N); purchased Cell Signaling Technology HTScan FLT-3 Kinase Assay Kit; host or cells: baculovirus expression system
T1 sequence (P36888 571-993): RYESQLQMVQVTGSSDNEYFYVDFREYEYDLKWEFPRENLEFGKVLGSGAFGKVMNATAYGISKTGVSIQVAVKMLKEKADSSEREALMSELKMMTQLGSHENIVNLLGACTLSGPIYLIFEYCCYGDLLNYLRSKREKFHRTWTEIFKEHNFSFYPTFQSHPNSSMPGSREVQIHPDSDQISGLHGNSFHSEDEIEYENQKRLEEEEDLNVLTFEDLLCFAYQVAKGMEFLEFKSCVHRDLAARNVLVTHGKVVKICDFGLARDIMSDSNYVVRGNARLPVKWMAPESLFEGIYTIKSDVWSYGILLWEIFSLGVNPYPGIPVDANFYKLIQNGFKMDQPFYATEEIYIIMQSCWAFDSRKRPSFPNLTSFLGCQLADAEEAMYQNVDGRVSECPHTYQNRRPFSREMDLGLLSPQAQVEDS
Description: Azaazulene Compounds of this invention were treated for their efficacy in inhibiting activities of FLT-3, c-KIT and KDR kinases by biochemical DELFIA (Dissociation Enhanced Lanthanide FIA) assays according to the procedure described below. The assays were conducted by, Division of Cell Engineering, Biomedical Engineering Research Laboratories, Industrial Technology Research Institute, Bldg. 53, 195, sec. 4, Chung Hsing Rd. Chutung, Hsinchu, Taiwan 310, R.O.C.
The FLT-3 assay was conducted following the protocol described in Protocol for HTScang FLT-3 Kinase Assay Kit (Cell Signaling Technology®).

SMILES	IC50 [1] [µM]	inhibition at 0.1 µM [2] [%]	inhibition at 1 µM [2] [%]
CCCCN(CCCC)CCN1CCN(c2ccc3[nH]c(-c4c5cccccc-5[nH]c4=O)nc3c2)CC1 [Compound B34]	0.151	40.2	85.4
O=C(c1ccc2[nH]c(-c3c4cccccc-4[nH]c3=O)nc2c1)N1CCN(c2ccncc2)CC1 [Compound B72]	0.05 to 0.1	36.8	85.5
O=c1[nH]c2cccccc-2c1-c1nc2cc(N3CCC(N4CCCC4)CC3)ccc2[nH]1 [Compound B104]	0.0691	28.3	84.1
O=C(Nc1ccc(F)cc1)Nc1ccc2[nH]c(-c3c4cccccc-4[nH]c3=O)nc2c1 [Compound B127]	~1	–	–
O=C(Nc1ccc(F)c(Cl)c1)Nc1ccc2[nH]c(-c3c4cccccc-4[nH]c3=O)nc2c1 [Compound B130]	1 to 5	8.6	24
O=c1[nH]c2cccccc-2c1-c1nc2cc(-n3nccn3)ccc2[nH]1 [Compound B116]	–	36.3	62.7
O=C(Nc1ccc2[nH]c(-c3c4cccccc-4[nH]c3=O)nc2c1)Nc1cc(C(F)(F)F)ccc1Cl [Compound B135]	0.626	41.4	62
O=C(Nc1ccc2[nH]c(-c3c4cccccc-4[nH]c3=O)nc2c1)Nc1c(F)cccc1F [Compound B129]	> 5	–	–
CN1CCC(N2CCN(c3ccc4[nH]c(-c5c6cccccc-6[nH]c5=O)nc4c3)CC2)CC1 [Compound B35]	0.159	42	86.7
CC(C)(C)OC(=O)Nc1ccc2[nH]c(-c3c4cccccc-4[nH]c3=O)nc2c1 [Compound B20]	1 to 5	16.7	33.3
CN(C)CCCN1CCN(c2ccc3[nH]c(-c4c5cccccc-5[nH]c4=O)nc3c2)CC1 [Compound B33]	0.0542	58.7	96.6
O=C(Nc1cccc(F)c1)Nc1ccc2[nH]c(-c3c4cccccc-4[nH]c3=O)nc2c1 [Compound B126]	> 5	–	–
O=c1[nH]c2cccccc-2c1-c1nc2cc(N3CCCN(c4ccncc4)CC3)ccc2[nH]1 [Compound B93]	0.129	44.2	89.4
O=c1[nH]c2cccccc-2c1-c1nc2cc(N3CCN(Cc4cccnc4)CC3)ccc2[nH]1 [Compound B48]	0.148	–	–
O=C(Nc1ccc2[nH]c(-c3c4cccccc-4[nH]c3=O)nc2c1)c1ccncc1 [Compound B75]	~1	13.4	37.1
O=C(Nc1ccc2[nH]c(-c3c4cccccc-4[nH]c3=O)nc2c1)Nc1cc(F)ccc1F [Compound B120]	0.676	10.2	10.1
O=c1[nH]c2cccccc-2c1-c1nc2cc(N3CCN(Cc4ccc(Br)o4)CC3)ccc2[nH]1 [Compound B46]	0.314	27.4	79.2
O=C(O)CCC(=O)N1CCCN(c2ccc3[nH]c(-c4c5cccccc-5[nH]c4=O)nc3c2)CC1 [Compound B89]	> 5	20	56.7
Nc1cc(N2CCN(c3ccc4[nH]c(-c5c6cccccc-6[nH]c5=O)nc4c3)CC2)ccn1 [Compound B62]	> 5	9.5	13.7
O=C(Nc1ccc2[nH]c(-c3c4cccccc-4[nH]c3=O)nc2c1)Nc1ccc(Cl)cc1C(F)(F)F [Compound B136]	1 to 5	21	70.8
CN(C)C1CCN(c2ccc3[nH]c(-c4c5cccccc-5[nH]c4=O)nc3c2)CC1 [Compound B101]	0.0397	46.8	90.7
CN1CCCN(c2cc3nc(-c4c5cccccc-5[nH]c4=O)[nH]c3cc2F)CC1 [Compound B85]	0.131	44.4	89.8
CN1CCCN(S(=O)(=O)c2ccc3[nH]c(-c4c5cccccc-5[nH]c4=O)nc3c2)CC1 [Compound B113]	0.1 to 0.5	14.8	42
CN1CCN(C(=O)c2ccc3[nH]c(-c4c5cccccc-5[nH]c4=O)nc3c2)CC1 [Compound B71]	0.957	6.8	39.3

SMILES	IC50 [1] [µM]	inhibition at 0.1 µM [2] [%]	inhibition at 1 µM [2] [%]
O=C(Nc1cccc(C(F)(F)F)c1)Nc1ccc2[nH]c(-c3c4cccccc-4[nH]c3=O)nc2c1 [Compound B132]	0.58	47.5	72.4
O=c1[nH]c2cccccc-2c1-c1nc2cc(N3CCN(Cc4ccncc4)CC3)ccc2[nH]1 [Compound B47]	0.3	–	–
O=c1[nH]c2cccccc-2c1-c1nc2cc(N3CCCN(c4cccc(Cl)n4)CC3)ccc2[nH]1 [Compound B96]	1 to 5	10.9	35.7
O=c1[nH]c2cccccc-2c1-c1nc2cc(N3CCCN(CCF)CC3)ccc2n1CCF [Compound B78]	0.1 to 0.5	20.3	39.4
O=C(c1ccc2[nH]c(-c3c4cccccc-4[nH]c3=O)nc2c1)N1CCCN(c2ccncc2)CC1 [Compound B92]	0.91	17.9	51.4
CN1CCN(c2c(F)cc3[nH]c(-c4c5cccccc-5[nH]c4=O)nc3c2F)CC1 [Compound B52]	0.635	20.3	42.5
O=c1[nH]c2cccccc-2c1-c1nc2cc(N3CCN(Cc4ccccc4)CC3)ccc2[nH]1 [Compound B44]	0.19	29	79.1
O=C(Nc1ccc(C(F)(F)F)cc1)Nc1ccc2[nH]c(-c3c4cccccc-4[nH]c3=O)nc2c1 [Compound B133]	0.1 to 0.5	30.5	53.3
CN1CCN(c2ccc3[nH]c(-c4c5cccccc-5[nH]c4=O)nc3n2)CC1 [Compound B27]	0.375	–	–
O=c1[nH]c2cccccc-2c1-c1nc2cc(N3CCNCC3)ccc2n1CC(F)(F)F [Compound B23]	0.0344	41.2	91.5
O=c1[nH]c2cccccc-2c1-c1nc2cc(N3CCN(Cc4ccccn4)CC3)ccc2[nH]1 [Compound B49]	0.249	21.9	72.2
CN(C)[C@@H]1CCN(c2ccc3[nH]c(-c4c5cccccc-5[nH]c4=O)nc3c2)C1 [Compound B110]	–	36.5	84.9
O=C(Nc1ccc2[nH]c(-c3c4cccccc-4[nH]c3=O)nc2c1)Nc1c(Cl)cncc1Cl [Compound B122]	> 5	–	–
O=c1[nH]c2cccccc-2c1-c1nc2cc3ccccc3cc2[nH]1 [Compound B18]	–	16.4	40.2
O=C(Nc1ccc2[nH]c(-c3c4cccccc-4[nH]c3=O)nc2c1)NC1CCCCC1 [Compound B124]	~5	–	–
O=c1[nH]c2cccccc-2c1-c1nc2cc(F)c(F)cc2[nH]1 [Compound B3]	1 to 5	–	–
O=c1[nH]c2cccccc-2c1-c1nc2cc(N3CCC(O)CC3)ccc2[nH]1 [Compound B107]	–	42.5	92.9
O=C(Nc1ccccc1)Nc1ccc2[nH]c(-c3c4cccccc-4[nH]c3=O)nc2c1 [Compound B121]	0.1 to 0.5	–	–
CCN1CCN(c2ccc3[nH]c(-c4c5cccccc-5[nH]c4=O)nc3c2)CC1 [Compound B28]	0.0963	–	–
O=C(Nc1ccc2[nH]c(-c3c4cccccc-4[nH]c3=O)nc2c1)Nc1ccc(F)cc1F [Compound B128]	1 to 5	–	–
CCc1cccc(C)c1NC(=O)Nc1ccc2[nH]c(-c3c4cccccc-4[nH]c3=O)nc2c1 [Compound B123]	1 to 5	–	–
CN1CCCN(c2c(F)cc3[nH]c(-c4c5cccccc-5[nH]c4=O)nc3c2F)CC1 [Compound B86]	0.253	–	–
O=C(Nc1ccc2[nH]c(-c3c4cccccc-4[nH]c3=O)nc2c1)Nc1ccccc1F [Compound B125]	0.68	–	–
